The values that follow are results of earlier work, collected in US7739091B2, “Method for estimating protein-protein binding affinities” (The Research Foundation of State University of New York, priority 2006, dated 2010).

For this series the following is noted: side chain flanked by peptide bonds, water to n-octanol.
Regarding `C[C@H](N)C(=O)O` [Ala], the transfer free energy was 3.64 kJ/mol.

As for `N[C@@H](Cc1c[nH]cn1)C(=O)O` [His], the transfer free energy is 3.85 kJ/mol.

With `N[C@@H](Cc1ccccc1)C(=O)O` [Phe], the transfer free energy was -7.57 kJ/mol.

Take `N[C@@H](CO)C(=O)O` [Ser]: the transfer free energy is 3.56 kJ/mol.

On to `C[C@@H](O)[C@H](N)C(=O)O` [Thr], for which the transfer free energy was 3.97 kJ/mol.

On to `N[C@@H](Cc1ccc(O)cc1)C(=O)O` [Tyr], for which the transfer free energy is -3.3 kJ/mol.
